Experimental data published in patent US11911464B2, “Anti-parasitic immunological compositions” (Prommune, Inc., priority 2018, dated 2024).
Non-standard residues stand in square brackets, D forms with d. No end group written: not given here. NMeL = CN[C@@H](CC(C)C)C(=O)O

B1: recombinant C5a: the complement protein from which the sequence of EP67 is derived (protein, UniProt P01031 678-751, looked up)
C5a anaphylatoxin: TLQKKIEEIAAKYKHSVVKKCCYDGACVNNDETCEQRAARISLGPRCIKAFTECCVVASQLRANISHKDMQLGR
modifications: C5a anaphylatoxin

What was measured:
[1] = system: bone marrow-derived mouse dendritic cells; assay: qPCR detection of cytokine expression following exposure to EP67; type: cell-based; conditions: EP67 50 μg/ml, 24 hrs, vs PBS controls, normalized to Actin B
Protocol: Free EP67 (unattached to any epitope) was used as a control to stimulate murine bone marrow-derived dendritic cells (See Table 1 below). […] Testing these and additional cytokines (at the gene and protein-expression levels) against all of the synthesized and control vaccines is carried out. Similarly, we will also be analyzing surface marker expression indicative of DC activation.
EP67 (50 μg/ml) was incubated with bone marrow-derived mouse dendritic cells (24 hrs) following in vitro maturation. Fold changes in expression were compared to PBS controls and normalized to Actin B gene expression. Three replicates were analyzed per gene. […] A positive control, bacterial LPS, was also evaluated and produced upregulation of at least 20-fold above PBS controls for all evaluated cytokines.

[2] = system: human monocytes; assay: Differentiation of human peripheral blood monocytes (morphology); type: cell-based; conditions: 50 μg/ml, 48 hrs
Description: EP67 Differentiates Human Peripheral Blood Monocytes to Cells with Phenotypes Characteristic of Macrophages/DCs.

[3] = system: human monocytes; assay: Surface marker immunophenotype of human monocytes incubated with EP67; type: cell-based; conditions: 50 μg/ml, over 7 days
Protocol: EP67 Differentiates Human Peripheral Blood Monocytes to Cells with Immunophenotypes Characteristic of Macrophages/DCs. Human monocytes were incubated with EP67 (50 μg/ml) and surface markers analyzed over the course of 7 days.

[4] = system: human monocyte-derived macrophages and DCs; assay: Cytokine release from human macrophages and DCs; type: cell-based; conditions: 50 μg/ml, after 24 hours of incubation
Protocol: Human monocyte-derived macrophages and DCs were incubated with EP67 (50 μg/ml) and scrambled EP67 (50 μg/ml) for 6 and 24 hours. Supernatants were collected and analyzed for the presence of the following cytokines: IL-1beta, IL-2, IL-4, IL-6, IL-10, IL-12p70, IL-13, IL-15, TNF-alpha, and IFN-gamma. […] It is worth noting that the prominent cytokines released at 6 and 24 hours in response to EP67 (IL-1beta, IL-2, IL-6, and TNF-alpha) represent a TH1/pro-inflammatory bias relative to the TH2/anti-inflammatory cytokines (IL-4, IL-5, IL-10, and IL-13). This TH1 bias is in keeping with earlier observations with EP67 and is an important immunologic component for an effective immune response to T. gondii.

[5] = system: murine splenocytes; assay: Cytokine release from murine splenocytes; type: cell-based, mouse; conditions: 50 μg/ml
Protocol: Splencocytes were obtained from normal Balb/c mice (ca. 2 months) and aged (ca. 17 months) sentinel mice of undetermined background (a gift from the University of Nebraska Medical Center Animal Facility). Spelocytes were cultured in the presence of EP67 and scrambled EP67 (50 μg/ml) for 24 hours, supernatants harvested, and analyzed for the presence of IL-1beta, IL-2, IL-4, IL-5, IL-6, KC/GRO, IL-10, IL-12p70, TNF-alpha, and IFN-gamma. […] Splenocytes were not our original choice of APCs from mice to evaluate the effects of EP67/EP67-based vaccines, but they were chosen for this first assessment as a matter of convenience to help with getting our cell culture protocols and assays established and verified.

[6] = system: RAW 264.7 cells; assay: TNF-alpha and IL-6 secretion from RAW 264.7 cells; type: cell-based, mouse; conditions: 6 hr and 24 hr exposures
Protocol: Although murine work was achieved using commercially available BALB/c cells, we felt it useful to explore additional cell options for in vitro evaluation of EP67 vaccine candidates. […] FIGS. 13A and 13B show the results of RAW 264.7 cells activated by EP67. In order to evaluate a cell line that is responsive to both EP67 and C5a (the complement protein from which the sequence of EP67 is derived), RAW 264.7 were tested for secretion of TNF-a and IL-6. For both cytokines, supernatants from both 6 hr and 24 hr exposures of recombinant C5a were high.

[7] = system: bone marrow-derived BALB/c DCs; assay: Murine dendritic cell activation (cytokine release) by EP67 vaccines; type: cell-based, mouse; conditions: 6 hr exposure
Description: A subset of vaccines were developed with murine DC's from BALB/c bone marrow, and examined for cytokine response. […] Bone marrow-derived BALB/c DCs were separately exposed to EP67-containing vaccines #1 (TgSAG1) and #2 (TgGRA1) (Example 3), and compared to sham exposure (media). […] KC/GRO, also known as CXCL1, is a potent neutrophil chemotactic cytokine. Increases in INF-gamma, IL-1b, and TNF-α were also observed, and are in-line with expectations of EP67 engagement of the C5a receptor and subsequent activation of dendritic cells.

[8] = system: DCs; assay: Surface activation markers of exposed dendritic cells by flow cytometry; type: cell-based, mouse; conditions: 6 hours exposure
Protocol: […] vaccines were investigated and found to increase surface activation markers of exposed white blood cells, such as DCs shown in FIG. 10, which were exposed for 6 hours to Vaccines #1 (TgSAG1) and #2 (TgGRA1). Following exposure, cells were fixed and stained with antibodies to measure cell surface markers of intact cells by flow cytometry.

[9] = system: human monocytes and monocyte-derived dendritic cells; assay: Multiplex cytokine release from human monocytes and monocyte-derived dendritic cells (EP67 analogues); type: cell-based; conditions: 50 μg/ml, 6 and 24 hours
Description: Cytokine Analysis. Considerable time was spent in learning the methods for the rapid, efficient, and high throughput method of cytokine analysis using a multiplex instrument for large panels of cytokines (MesoScale QuickPlex SQ 120). With this instrument, we tested the EP67- and analogue-mediated release of a pro-inflammatory and anti-inflammatory panel of cytokines (IL-1beta, IL-2, IL-4, IL-6, IL-10, IL-12p70, IL-13, IL-15, TNF-α, and IFN-gamma) from human monocytes and monocyte-derived dendritic cells over the course of 6 and 24 hours of exposure 50 μg/ml EP67, scrambled EP67 (scEP67), and EP67 analogues (EP144, EP146, and EP147).

Molecule | conversion of monocytes into elongated, adhered macrophage/DC-like cells [2] | release of IL-1beta, IL-2, IL-6, IFN-gamma, and TNF-alpha [4] | secretion of TNF-a and IL-6 [6] | INF-gamma, IL-1b, and TNF-α release [7] | cytokine release compared to sham (media) [7] | CD80, CCR7, and MHC Class II molecules compared to control (media only) [8] | other results
YSFKDMP(MeL)aR (YSFKDMP[NMeL][dA]R; not fully specified; printed as YSFKDMP(MeL)aR) [EP67] | converts rounded and non-adhered monocytes into elongated, adhered cells | induced the release | statistically significant (p<0.05) increases | – | – | – | Fold change CXCL1 (a.k.a. KC) expression [1]: 1.61 fold; Fold change IL-6 expression [1]: 3.40 fold; Fold change IL-10 expression [1]: 4.13 fold; Fold change TNF alpha expression [1]: 2.14 fold; expression of CD14, CD16, CD11b, and CD33 [3]: moderately enhanced; expression of CD80 and CD206 [3]: significantly enhanced; cytokine release relative to controls, aged sentinel mice splenocytes ([5]; aged ca. 17 months): more pronounced effect; cytokine release relative to controls, Balb/c splenocytes ([5]; normal Balb/c mice ca. 2 months): little effect
EEVIDTMKSMQRDEERRYSFKDMP(MeL)aR (EEVIDTMKSMQRDEERRYSFKDMP[NMeL][dA]R; not fully specified; printed as EEVIDTMKSMQRDEERRYSFKDMP(MeL)aR) [Vaccine 2] | – | – | – | Increases | cytokine release above the controls | Elevation occurred | CD80 increase compared to control (media only) [8]: > 80%
SFKDILPKLSENPWQRRYSFKDMP(MeL)aR (SFKDILPKLSENPWQRRYSFKDMP[NMeL][dA]R; not fully specified; printed as SFKDILPKLSENPWQRRYSFKDMP(MeL)aR) [Vaccine 1] | – | – | – | Increases | cytokine release above the controls | Elevation occurred | –
(MeL)RMYKPaFDS ([NMeL]RMYKP[dA]FDS) [scrmbEP67, reference compound] | not | not | – | – | – | – | –
YSFKDM(Cha)LaR [EP147] | – | – | – | – | – | – | cytokine release (pro- and anti-inflammatory panel) [9]: increase in cytokine release
B1 | – | – | high | – | – | – | –
